# Results reported in patent US20260373132A1, “PERK INHIBITORHC-5404 IN COMBINATION WITH ANTI-PD-1 ANTIBODY AND/OR AN ANTIANGIOGENETIC AGENT FOR USE IN THE TREATMENT OF CANCER” (HIBERCELL, INC., priority 2022, published 2026).
# Tests used:
# [1] = mouse plasma protein binding; assay type: in vitro ADME; conditions: read-out: Mouse plasma protein binding (PPB %) (converted)
# Description: Initial in vivo studies aimed at understanding the pharmacokinetic and pharmacodynamic (PK/PD) relationship and optimizing the dosing regimen were conducted. HC-5404 was quantified from mouse plasma following a single oral administration (PO) at doses ranging from 3 to 100 mg/kg. […] Mouse plasma protein binding (PPB %) was determined to be 95.6%, which enabled us to calculate the free drug plasma exposure across time (FIG. 18).
# [2] = tested on: Capan-2 pancreatic tumor xenografts; assay: CAPAN-2 pancreatic xenograft tumor growth; assay type: in vivo, mouse; conditions: for TGI: 48 days
# [3] = tested on: mouse pancreas; assay: pancreas histology (pancreatic toxicity); assay type: in vivo
# Description: As PERK inhibition has been associated with pancreatic toxicity, pancreas sections were evaluated from mice treated with 30 mg/kg or 100 mg/kg HC-5404. […] Together, these findings further supported the decision to dose at 30 mg/kg HC-5404 in subsequent in vivo studies.
# [4] = tested on: myeloid, lymphoid and tumor cells in MB49 model; assay: flow cytometry of tumor, lymph node and blood cells in MB49 model; assay type: in vivo, mouse; conditions: 10, 30 mg/kg (FIG. 8)
# Description: C57BL/6 mice were subcutaneously inoculated with MB49 cells, and treatment started on day 8 post cell inoculation. A group of animals (n=10/group) received either vehicle, HC-5404 (PO, BID) (3 mg/kg, 10 mg/kg, or 30 mg/kg), 5 mg/kg anti-PD-1 antibody (aPD-1) (RMP1-14) (IP, BIW), or the combination of both. At various timepoints, animals were sacrificed, and flow cytometry was performed on blood or single cell suspensions from tumors or lymph nodes (n=6).
# Tumor tissue samples were obtained 7 days post treatment (14 days post inoculation). Single cells were prepared by enzymatic digestion of tumor tissues and subsequently analyzed by flow cytometry on a Cytek Aurora. Expression of IFNAR1 (A) and PD-L1 (B) on the myeloid populations and tumors were shown.
# Surface calreticulin was analyzed by flow cytometry on MB49 tumor cells d7 post treatment.
# Single cell suspensions were washed in PBS twice and then stained with the LIVE/DEAD fixable blue dead cell stain (Invitrogen cat #L23105) at 1:3000 dilution for 30 minutes at 4 °C. […]
# LN cells from day 14 post treatment samples were analyzed by flow cytometry. […]
# Whole blood was collected on the indicated date post treatment in a MB49 model. IFNAR1 expression was determined by flow cytometry and gated on CD14+ monocytes […]
# [5] = tested on: ASNS and PSAT1 in MFE280 tumors; assay: ASNS and PSAT1 in MFE280 tumors; assay type: in vivo, mouse; conditions: 7 days, HC-5404 30 mpk BID
# [6] = tested on: pro-angiogenic cytokines in mouse plasma; assay: plasma pro-angiogenic cytokines, mice bearing 786-O tumors; assay type: in vivo
# Description: Mouse plasma sampled following 7 days of treatment with HC-5404 (30 mpk, PO, BID) and cabozantinib (30 mpk, PO, QD). Multiple cytokines associated with angiogenesis were quantified by Illumina multiplex.
# Plasma analysis from mice bearing 786-O tumors, treated with HC-5404 at 3, 10, or 30 mg/kg (PO; BID) as a single agent or in combination with cabozantinib (30 mg/kg; PO; QD). Multiple cytokines associated with angiogenesis were quantified by Illumina multiplex (FIG. 86, FIG. 87, FIG. 88, FIG. 89, FIG. 90).
# [7] = tested on: RXF-2540; assay: RCC PDX single animal trial, RXF-2540; assay type: in vivo, mouse; conditions: HC-5404 30 mg/kg PO BID, n=1
# Description: This example investigated the effect of HC-5404 in combination with VEGFR-TKIs in inhibiting tumor growth using 12 RCC PDX tumor models, following procedures analogous to those described above.
# Single animal per group (n=1) trial of animals harboring diverse RCC PDX models were used in this study.
smiles,measurement,setting,value
"Cc1cc(NC(=O)[C@H](O)c2cc(F)cc(F)c2)ccc1-c1cnc(N)c(C(=O)NC(C)C)c1 [HC-5404, (R)-2-amino-5-(4-(2-(3,5-difluorophenyl)-2-hydroxyacetamido)-2-methylphenyl)-N-isopropylnicotinamide]",fraction unbound,[1],0.044
same,TGI,[2]; 30 mg/kg PO BID,50%
same,TGI,[2]; 100 mg/kg PO BID,43%
same,difference between dose levels in TGI,[2]; 30 vs 100 mg/kg BID,No difference between the dose levels
same,reversibility of histological pancreas changes,"[3]; 100 mg/kg PO BID, two-week washout",reversible with a two-week washout period
same,histological changes in the pancreas,"[3]; 30 or 100 mg/kg PO BID, three weeks",histological changes in the pancreas only in the 100 mg/kg dose
same,effect on IFNAR1 on monocytes in peripheral blood,[4],also detected on monocytes in peripheral blood
same,ASNS,[5]; lenvatinib 10 mpk QD (FIG. 79),induces ASNS
same,PSAT1,[5]; lenvatinib 10 mpk QD (FIG. 80),induces
same,VEGF-A in plasma,"[6]; 3, 10, 30 mg/kg PO BID (FIG. 86)",decreased in plasma by HC-5404 as a single agent in a dose-dependent fashion
same,LYVE-1 in plasma,"[6]; 3, 10, 30 mg/kg PO BID, alone or with cabozantinib (FIG. 89)",decreased by HC-5404 in a dose-dependent manner
same,Syndecan in plasma,"[6]; 3, 10, 30 mg/kg PO BID, alone or with cabozantinib (FIG. 90)",decreased by HC-5404 as monotherapy
same,antitumor efficacy as monotherapy,[7],exhibited antitumor efficacy
